The term viability denotes a per cent measure of how many cells are alive, often set against a control.

The text below walks through data of patent US5334761A, “Cationic lipids” (Life Technologies, Inc., priority 1992, dated 1994).

Where a name gives a salt, the structure may show the parent alone.

In one data set the test system is BHK-21 cells. Description: CAT transient transfection. Format: cell-based, baby hamster. On the procedure: (§1) A one-to-one mixture (by weight) of the desired lipid and dioleylphosphatidyl ethanolamine was prepared in CHCl3. The CHCl3 was removed on the rotary evaporator to obtain a thin film of lipid mixture. The mixture was hydrated with enough water to obtain approximately 1.25 mg of lipid per ml of solution. The solution was passed through a microfluidizer twice and diluted to 1 mg/ml. The liposome formulation was then filtered through a 0.2 μ filter. Compound 8 was also formulated without DOPE either by sonication at 1 mg/ml in water or by dissolving a dried lipid film with ethanol and then adding water to give a final concentration of 2.5 mg/ml. Ethanol was 10% of that volume. In some instances, this was further diluted with water to 1 mg/ml, 4% ethanol.
(§2) Baby hamster kidney (BHK-21) , COS-7, HeLa-S3 cells, and normal human fibroblasts isolated from newborn foreskin dermis were grown in Dulbecco's-modified Eagle's medium (DMEM) containing 10% fetal bovine serum (FBS), 2 mM L-glutamine (gln), 0.1 mM MEM nonessential amino acids (NEAA), 100 U/ml penicillin, and 100 μg/ml streptomycin. […]
Cell lysates were assayed for CAT activity as described by Neumann et al. (1987) BioTechniques 5:444 using [^14 C]-butyryl coenzyme A (New England Nuclear, Boston, Mass.). […] CAT activity was determined by measuring radioactivity in a liquid scintillation counter. […]

The next data set relates to PC12 cells. Description: % protein (toxicity estimate, Bradford) after transfection. Conditions: PC12. It is filed as cell-based, rat. On the procedure: as §1, §2
The "% protein" column indicates the relative amount of protein in the sample tested for CAT activity and therefore provides a way to estimate toxicity of the compounds being tested. […] Protein was measured using a commercially available Bradford protein assay (BioRad Laboratories, Richmond, Ca.). […]

Data set [1] relates to Jurkat cells. Description: CAT transient transfection. It is filed as cell-based, human. On the procedure: as §1
(§3) Baby hamster kidney (BHK-21) , COS-7, HeLa-S3 cells, and normal human fibroblasts isolated from newborn foreskin dermis were grown in Dulbecco's-modified Eagle's medium (DMEM) containing 10% fetal bovine serum (FBS), 2 mM L-glutamine (gln), 0.1 mM MEM nonessential amino acids (NEAA), 100 U/ml penicillin, and 100 μg/ml streptomycin. NIH-3T3 cells were grown in DMEM containing 10% calf serum (CS), 2 mMgln, 0.1 mM NEAA 100 U/ml penicillin, and 100 μg/ml streptomycin. PC12 cells were grown in DMEMcontaining 10% horse serum, 5% FBS, 2 mM gln, 0 1 mMNEAA, 100 U/ml penicillin and 100 μ/ml streptomycin. Jurkat cells (human lymphoid cell line) were grown in RPMI-1640 supplemented with 10% FBS, 2mML-glutamine, 100 U/ml penicillin, and 100 μg/ml streptomycin. Human keratinocytes were isolated from newborn foreskin epidermis and cultured in Keratinocyte Growth Medium (Clonetics, San Diego, Ca.). All cell lines were maintained in a humidified incubator with a 5% CO2 atmosphere at 37° C.
pSV2CAT (5.0 Kb) was described previously (Gorman, C. M. et al. (1982) Mol. Cell. Biol. 2:1044). pCMVCAT (5.0 Kb) was also described previously (Foecking M. K. and Hofstetter, H. (1986) Gene 45:101). Plasmid DNA was purified by isopycnic centrifugation in CsCl/EtBr gradients after recovery by alkaline lysis (Maniatis, T. et al. (1982) in Molecular Cloning: A Laboratory Manual, Cold Spring Harbor Laboratory, Cold Spring Harbor, N.Y., pp. 90-91).
(§4) For transient nuclear expression of pSV2CAT or pCMVCAT in Jurkat cells, cells were washed with Opti-MEM I or serum-free RPMI 1640 containing 2 mM gln and plated in six-well plates at a density of 3×10^6 cells per well in 0.8 ml Opti-MEM I or RPMI 1640. For each transfection, 5 μg pSV2CAT DNA or 2 μg pCMVCAT DNA was diluted in 100 μl Opti-MEM I. Lipids were diluted separately in another 100 μl aliquot of Opti-MEMI. The two solutions were then mixed in a polystyrene tube and incubated for 10-15 min at room temperature. The DNA-liposome complex was added to the cell suspensions and incubated 6 hours at 37° C., after which 4 ml growth medium were added per well (RPMI-1640; 10% FBS). Phorbol myristate acetate (Sigma Chemical Co., St. Louis, Mo.) and phytohemagglutinin (Sigma) were also added to a final concentration of 50 ng/ml and 1 μg/ml, respectively, to activate the cells. Cells were harvested at approximately 48 hours post-transfection by centrifugation. Cell lysates were prepared by resuspending cell pellets at 0° C. in 0.1 M Tris-HC1 pH 8.0 containing 0.1% Triton X-100 and freeze-thawing once. Cell lysates were cleared by centrifugation and assayed for CAT activity.
Cell lysates were assayed for CAT activity as described by Neumann et al. (1987) BioTechniques 5:444 using [^14 C]-butyryl coenzyme A (New England Nuclear, Boston, Mass.). The enzyme reactions were incubated for 2 hrs at 37° C., overlayed with 3.0 ml Econofluor (New England Nuclear) and then incubated for an additional 2 hrs to allow diffusion of the acetylated chloramphenicol into the scintillation fluid. CAT activity was determined by measuring radioactivity in a liquid scintillation counter. […]

A short description of data set [2]: % protein (toxicity estimate, Bradford) after transfection. To be noted: human, jurkat cells, 15 μg lipid; 2 μg pCMVCAT; 6 h RPMI1640. Format: cell-based, human. On the procedure:
as §1, §3, §4
(§5) The "% protein" column indicates the relative amount of protein in the sample tested for CAT activity and therefore provides a way to estimate toxicity of the compounds being tested. The "CAT Activity" column indicates the relative transfection effectiveness of the lipid formulation in the various cell lines. The control sample was a cell culture grown under similar conditions as those that were transfected, but with no DNA or cationic lipid added. Protein was measured using a commercially available Bradford protein assay (BioRad Laboratories, Richmond, Ca.).
(§6) Jurkat cells (3 × 10^6 cells) were transfected in OPTIMEM with
(§7) μg of pSV2CAT DNA for 6 hours.
(§8) DNA-lipid complexes were made in OPTIMEM. Jurkat cells (3 × 10^
(§9) cells) were transfected in RPMI1640 with 2 μg of pCMVCAT DNA for 6

Data set [3] relates to Jurkat cells. The data set is described as above. It is filed as cell-based, human. To be noted: Jurkat. On the procedure:
as §1, §3, §4, §5, §6, §7, §8, §9

Take `CCCCCCCC/C=C\CCCCCCCCOCC(C[N+](C)(C)CCNC(=O)C(CCCNCCCN)NCCCN)OCCCCCCCC/C=C\CCCCCCCC` (stereo not drawn) [Compound 8, 1-Propanaminium, N-[2-[[2,5-bis[(3-amino]-1-oxopentyl]amino]ethyl]-n,n-dimethyl-2,3,-bis(9-octadecenyloxy)-, tetra(trifluoroacetate) salt]: the “DNA transfection (in words)” value in the data set on BHK-21 cells and with Jurkat cells [1] (Jurkat) was “highly effective” each time. The “toxicity (in words)” value with PC12 cells and in the data set on Jurkat cells [3] was “minimal toxicity” in each case. Besides, in the data set on Jurkat cells [1] (15 μg lipid, 2 μg pCMVCAT, 6 h RPMI1640), the “CAT ACTIVITY” value was 44,996 CPM/150 ul. Further, the viability at 6 h in data set [2] is 47%.
